Molecules are shown by their SMILES.

The target of this assay is MurA (Escherichia coli, UniProt P0A749). Kind of assay: Direct adsorption scintillation assay (DASA) of the coupled MurA-MurB-MurC reaction, detection of enzyme inhibition. It is filed as biochemical. The procedure:
A reaction mixture was prepared, of which 2 μl contains 38 ng MurA, 34 ng MurB, 34 ng MurC, 40 pmol ATP, 40 pmol UDP-NAcGlc, 40 pmol PEP, 40 pmol NADPH, 4 pmol L-[^3H]-alanine (72.3 Ci/mmol) in 50 mM Tris-HCl, pH 8, 20 mM MgCl2, 20 mM (NH4)2SO4, 1 mM DTT, 0.005% Brij-35. The mixture was incubated at room temperature for one hour. After one hour, 0.25 μl of the reaction mixture was transferred into each well of the poly-D-lysine coated FLASHPLATE™; each well contained 100 μl of 10 mM acetic acid, pH 3.0. The scintillation was counted using the TOPCOUNT™.
Enzyme mixtures (with 60 ng MurA, 8 ng MurB and 60 ng MurC present in each 2 μl sample) were prepared. The enzyme-phosphomycin mixture was pre-incubated at room temperature for 30 minutes. The substrates, as prepared in Example 2, were then added to the mixture to start the reaction. After 30 minutes of reaction at room temperature, 0.25 μl of the reaction mixture was transferred into each well of the poly-D-lysine coated FLASHPLATE™; each well contained 100 μl of 10 mM acetic acid. The scintillation was counted using the TOPCOUNT™.

Chain of MurA (P0A749 whole entry): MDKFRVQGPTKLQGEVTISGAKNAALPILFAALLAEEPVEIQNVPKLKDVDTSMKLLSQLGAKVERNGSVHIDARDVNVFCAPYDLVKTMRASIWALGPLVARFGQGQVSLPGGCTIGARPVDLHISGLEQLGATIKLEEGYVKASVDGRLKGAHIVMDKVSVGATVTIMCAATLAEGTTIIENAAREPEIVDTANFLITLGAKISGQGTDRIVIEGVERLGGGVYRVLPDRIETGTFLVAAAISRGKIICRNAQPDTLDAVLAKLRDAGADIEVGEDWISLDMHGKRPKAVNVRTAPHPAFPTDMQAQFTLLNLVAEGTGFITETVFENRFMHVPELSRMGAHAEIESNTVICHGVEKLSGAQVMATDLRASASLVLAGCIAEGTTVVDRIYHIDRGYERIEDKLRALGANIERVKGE

On to `C[C@@H]1O[C@@H]1P(=O)(O)O` [phosphomycin], for which the “scintillation count with increasing inhibitor concentration (FIG. 3)” value (60 ng MurA, 8 ng MurB, 60 ng MurC per 2 μl, 30 min pre-incubation at room temperature without UDP-NAcGlc, 30 min reaction, poly-D-lysine coated FLASHPLATE) is on record as “decreased scintillation count”. In addition, the IC50 entry (pre-incubation carried out in the absence of UDP-NAc-Glu, qualitative statement, no number given) is given as “relatively high”.
